According to patent publication US20230085307A1, “PYRIDAZINONE COMPOUND AND HERBICIDE” (NISSAN CHEMICAL CORPORATION, priority 2019, published 2023):

Tests used:
barnyard grass [1] = test: Test Example 3: herbicidal effect by foliage application, Wagner pot (Table 18, symbol H); format: in vivo, barnyard grass (Echinochloa crus-galli); settings: 320 g/ha
Method in brief: (§1)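 Plants were sown in alluvial soil held under 0.1–0.5 cm standing water and grown 14 days in a greenhouse at 25–30 °C. An emulsifiable formulation, water-diluted to the set dose, was then sprayed onto the foliage, and effects were scored three weeks later using previously defined criteria.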

Chinese sprangletop = test: Test Example 3: herbicidal effect by foliage application, Wagner pot (Table 18, symbol D); format: in vivo, chinese sprangletop (Leptochloa chinensis); settings: 320 g/ha
Method in brief: as §1

rice flat sedge = test: Test Example 3: herbicidal effect by foliage application, Wagner pot (Table 18, symbol E); format: in vivo, rice flat sedge (Cyperus iria); settings: 320 g/ha
Method in brief: as §1

southern crabgrass = test: Test Example 5: herbicidal effect by foliage application, plastic box (Table 20, symbol F); format: in vivo, southern crabgrass (Digitaria ciliaris); settings: amount of applied herbicide 320 g/ha; foliage application after 14-day growth; evaluated three weeks after application
Method in brief: (§2)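 Plants were sown into sterilized diluvial soil under about 1.5 cm cover and kept in a greenhouse at 25° C. to 30° C. Fourteen days on, foliage received an even spray of the diluted emulsion. Herbicidal or crop effect was judged three weeks afterwards.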

green foxtail = test: Test Example 5: herbicidal effect by foliage application, plastic box (Table 20, symbol G); format: in vivo, green foxtail (Setaria viridis); settings: amount of applied herbicide 320 g/ha; foliage application after 14-day growth; evaluated three weeks after application
Method in brief: as §2

barnyard grass [2] = test: Test Example 5: herbicidal effect by foliage application, plastic box (Table 20, symbol H); format: in vivo, barnyard grass (Echinochloa crus-galli); settings: amount of applied herbicide 320 g/ha; foliage application after 14-day growth; evaluated three weeks after application
Method in brief: as §2

wild oat = test: Test Example 5: herbicidal effect by foliage application, plastic box (Table 20, symbol I); format: in vivo, wild oat (Avena fatua); settings: amount of applied herbicide 320 g/ha; foliage application after 14-day growth; evaluated three weeks after application
Method in brief: as §2

blackgrass = test: Test Example 5: herbicidal effect by foliage application, plastic box (Table 20, symbol J); format: in vivo, blackgrass (Alopecurus myosuroides); settings: amount of applied herbicide 320 g/ha; foliage application after 14-day growth; evaluated three weeks after application
Method in brief: as §2

Italian ryegrass = test: Test Example 5: herbicidal effect by foliage application, plastic box (Table 20, symbol K); format: in vivo, Italian ryegrass (Lolium multiflorum); settings: amount of applied herbicide 320 g/ha; foliage application after 14-day growth; evaluated three weeks after application
Method in brief: as §2

windgrass = test: Test Example 5: herbicidal effect by foliage application, plastic box (Table 20, symbol L); format: in vivo, windgrass (Apera spica-venti); settings: amount of applied herbicide 320 g/ha; foliage application after 14-day growth; evaluated three weeks after application
Method in brief: as §2

velvetleaf = test: Test Example 5: herbicidal effect by foliage application, plastic box (Table 20, symbol M); format: in vivo, velvetleaf (Abutilon theophrasti); settings: amount of applied herbicide 320 g/ha; foliage application after 14-day growth; evaluated three weeks after application
Method in brief: as §2

redroot pigweed = test: Test Example 5: herbicidal effect by foliage application, plastic box (Table 20, symbol N); format: in vivo, redroot pigweed (Amaranthus retroflexus); settings: amount of applied herbicide 320 g/ha; foliage application after 14-day growth; evaluated three weeks after application
Method in brief: as §2

lambsquarters = test: Test Example 5: herbicidal effect by foliage application, plastic box (Table 20, symbol O); format: in vivo, lambsquarters (Chenopodium album); settings: amount of applied herbicide 320 g/ha; foliage application after 14-day growth; evaluated three weeks after application
Method in brief: as §2

chickweed = test: Test Example 5: herbicidal effect by foliage application, plastic box (Table 20, symbol P); format: in vivo, common chickweed (Stellaria media); settings: amount of applied herbicide 320 g/ha; foliage application after 14-day growth; evaluated three weeks after application
Method in brief: as §2

persian speedwell = test: Test Example 5: herbicidal effect by foliage application, plastic box (Table 20, symbol R); format: in vivo, Persian speedwell (Veronica persica); settings: amount of applied herbicide 320 g/ha; foliage application after 14-day growth; evaluated three weeks after application
Method in brief: as §2

Structure (SMILES)	herbicidal effect on barnyard grass (H) (barnyard grass [1])	herbicidal effect on Chinese sprangletop (D) (Chinese sprangletop)	herbicidal effect on rice flat sedge (E) (rice flat sedge)	Herbicidal effect by foliage application, F: southern crabgrass (southern crabgrass)	Herbicidal effect by foliage application, G: green foxtail (green foxtail)	Herbicidal effect by foliage application, H: barnyard grass (barnyard grass [2])	Herbicidal effect by foliage application, I: wild oat (wild oat)	Herbicidal effect by foliage application, J: blackgrass (blackgrass)	Herbicidal effect by foliage application, K: Italian ryegrass (Italian ryegrass)	Herbicidal effect by foliage application, L: windgrass (windgrass)	Herbicidal effect by foliage application, M: velvetleaf (velvetleaf)	Herbicidal effect by foliage application, N: redroot pigweed (redroot pigweed)	Herbicidal effect by foliage application, O: lambsquarters (lambsquarters)	Herbicidal effect by foliage application, P: chickweed (chickweed)	Herbicidal effect by foliage application, R: persian speedwell (persian speedwell)
CCSc1cccc(-c2sc3c(Cl)cccc3c2-c2c(O)c(C)nn(C)c2=O)c1 [4-092]	5 (Herbicidal rate of 90% or more (almost completely withered))	3 (Herbicidal rate of 40% or more and less than 70%)	4 (Herbicidal rate of 70% or more and less than 90%)	4 (Herbicidal rate of 70% or more and less than 90%)	3 (Herbicidal rate of 40% or more and less than 70%)	3 (Herbicidal rate of 40% or more and less than 70%)	1 (Herbicidal rate of 5% or more and less than 20%)	0 (Herbicidal rate of 5% or less (almost no effect))	2 (Herbicidal rate of 20% or more and less than 40%)	5 (Herbicidal rate of 90% or more (almost completely withered))	3 (Herbicidal rate of 40% or more and less than 70%)	5 (Herbicidal rate of 90% or more (almost completely withered))	3 (Herbicidal rate of 40% or more and less than 70%)	4 (Herbicidal rate of 70% or more and less than 90%)	5 (Herbicidal rate of 90% or more (almost completely withered))
CCCC(=O)Oc1c(C)nn(C)c(=O)c1-c1c(-c2cccc3c2OCC3)sc2c(Cl)cccc12 [4-099]	5 (Herbicidal rate of 90% or more (almost completely withered))	5 (Herbicidal rate of 90% or more (almost completely withered))	4 (Herbicidal rate of 70% or more and less than 90%)	0 (Herbicidal rate of 5% or less (almost no effect))	0 (Herbicidal rate of 5% or less (almost no effect))	0 (Herbicidal rate of 5% or less (almost no effect))	0 (Herbicidal rate of 5% or less (almost no effect))	0 (Herbicidal rate of 5% or less (almost no effect))	0 (Herbicidal rate of 5% or less (almost no effect))	0 (Herbicidal rate of 5% or less (almost no effect))	1 (Herbicidal rate of 5% or more and less than 20%)	2 (Herbicidal rate of 20% or more and less than 40%)	0 (Herbicidal rate of 5% or less (almost no effect))	1 (Herbicidal rate of 5% or more and less than 20%)	4 (Herbicidal rate of 70% or more and less than 90%)
CSc1ccccc1-c1sc2c(C)cccc2c1-c1c(O)c(C)nn(C)c1=O [4-116]	3 (Herbicidal rate of 40% or more and less than 70%)	4 (Herbicidal rate of 70% or more and less than 90%)	3 (Herbicidal rate of 40% or more and less than 70%)	0 (Herbicidal rate of 5% or less (almost no effect))	0 (Herbicidal rate of 5% or less (almost no effect))	0 (Herbicidal rate of 5% or less (almost no effect))	0 (Herbicidal rate of 5% or less (almost no effect))	0 (Herbicidal rate of 5% or less (almost no effect))	0 (Herbicidal rate of 5% or less (almost no effect))	0 (Herbicidal rate of 5% or less (almost no effect))	0 (Herbicidal rate of 5% or less (almost no effect))	0 (Herbicidal rate of 5% or less (almost no effect))	0 (Herbicidal rate of 5% or less (almost no effect))	4 (Herbicidal rate of 70% or more and less than 90%)	4 (Herbicidal rate of 70% or more and less than 90%)
